In patent US20250171495A1, “MUTLI-TARGETED SERINE PROTEASE INHIBITORS FOR TREATMENT OF CANCER AND VIRAL INFECTION” (Washington University, priority 2023, published 2025):
Where “and” joins values, the source holds several entries; their conditions need not be identical. Equal entries are not always repeated.

Assays:
Assay type in all cases: biochemical
TMPRSS2 = TMPRSS2 (Homo sapiens, UniProt O15393); test: PS-SCL / HyCoSuL substrate specificity screening, TMPRSS2; conditions: for P2 Position Substrate Activity for TMPRSS2 (percent substrate cleavage/proteolysis): residue fixed at P2 position of substrate library; for P3 Position Substrate Activity for TMPRSS2 (percent substrate cleavage/proteolysis) / P3 Position Various Amino Acids Substrate Activity, TMPRSS2 (percent substrate cleavage/proteolysis): residue fixed at P3 position of substrate library
Sequence of TMPRSS2 (O15393 whole entry): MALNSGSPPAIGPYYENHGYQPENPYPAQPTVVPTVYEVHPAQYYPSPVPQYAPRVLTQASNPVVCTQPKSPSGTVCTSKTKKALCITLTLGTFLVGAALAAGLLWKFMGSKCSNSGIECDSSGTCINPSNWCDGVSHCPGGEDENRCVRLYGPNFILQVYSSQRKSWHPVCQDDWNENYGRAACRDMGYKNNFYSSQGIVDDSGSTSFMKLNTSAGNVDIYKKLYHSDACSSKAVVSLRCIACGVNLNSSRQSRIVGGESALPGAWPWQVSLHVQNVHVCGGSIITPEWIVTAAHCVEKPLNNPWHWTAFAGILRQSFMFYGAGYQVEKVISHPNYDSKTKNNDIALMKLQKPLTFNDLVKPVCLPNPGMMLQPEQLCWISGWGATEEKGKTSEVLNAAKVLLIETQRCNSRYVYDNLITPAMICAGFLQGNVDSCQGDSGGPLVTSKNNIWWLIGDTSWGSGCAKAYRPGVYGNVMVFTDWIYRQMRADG

matriptase = target: T1, matriptase (Homo sapiens, UniProt Q9Y5Y6); test: HyCoSuL P4-P2 substrate specificity screening, matriptase; conditions: for P2 Position Substrate Activity for matriptase (percent substrate cleavage/proteolysis): residue fixed at P2 position; for P3 Position Various Amino Acids Substrate Activity, matriptase (percent substrate cleavage/proteolysis): residue fixed at P3 position of substrate library; for P3 Position Substrate Activity for matriptase (percent substrate cleavage/proteolysis): residue fixed at P3 position; for P4 Position Various Amino Acids Substrate Activity, matriptase (percent substrate proteolysis/cleavage): residue fixed at P4 position of substrate library
T1 sequence (Q9Y5Y6 1-855): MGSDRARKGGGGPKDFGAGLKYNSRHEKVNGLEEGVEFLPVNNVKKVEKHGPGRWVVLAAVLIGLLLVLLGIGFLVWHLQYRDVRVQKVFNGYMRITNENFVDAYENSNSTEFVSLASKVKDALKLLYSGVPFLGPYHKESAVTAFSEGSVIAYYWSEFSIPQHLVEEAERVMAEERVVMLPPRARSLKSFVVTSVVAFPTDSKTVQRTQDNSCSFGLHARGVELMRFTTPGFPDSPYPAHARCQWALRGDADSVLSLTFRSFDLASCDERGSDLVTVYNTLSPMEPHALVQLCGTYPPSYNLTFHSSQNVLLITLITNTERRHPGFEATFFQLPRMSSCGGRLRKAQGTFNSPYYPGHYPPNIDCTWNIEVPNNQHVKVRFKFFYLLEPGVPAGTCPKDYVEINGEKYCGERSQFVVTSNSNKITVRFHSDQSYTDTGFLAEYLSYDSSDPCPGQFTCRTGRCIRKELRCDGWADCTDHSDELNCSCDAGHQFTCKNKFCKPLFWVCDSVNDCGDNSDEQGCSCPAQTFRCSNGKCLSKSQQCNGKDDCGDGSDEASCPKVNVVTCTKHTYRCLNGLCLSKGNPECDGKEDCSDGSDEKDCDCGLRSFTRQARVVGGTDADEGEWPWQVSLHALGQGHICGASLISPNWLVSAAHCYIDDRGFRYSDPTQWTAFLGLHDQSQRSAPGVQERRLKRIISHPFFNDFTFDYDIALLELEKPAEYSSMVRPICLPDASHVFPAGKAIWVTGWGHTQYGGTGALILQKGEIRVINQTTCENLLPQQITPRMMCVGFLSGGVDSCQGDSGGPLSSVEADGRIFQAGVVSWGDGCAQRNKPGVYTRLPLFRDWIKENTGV

hepsin = target: T2, hepsin (Homo sapiens, UniProt P05981); test: HyCoSuL P4-P2 substrate specificity screening, hepsin; conditions: for P2 Position Substrate Activity for hepsin (percent substrate cleavage/proteolysis): residue fixed at P2 position; for P3 Position Substrate Activity for hepsin (percent substrate cleavage/proteolysis): residue fixed at P3 position; for P4 Position Various Amino Acids Substrate Activity, hepsin (percent substrate proteolysis/cleavage): residue fixed at P4 position of substrate library; for P3 Position Various Amino Acids Substrate Activity, hepsin (percent substrate cleavage/proteolysis): residue fixed at P3 position of substrate library
T2 construct: purchased R&D Systems 4776-SE-010
T2 sequence (P05981 163-417 limits assumed): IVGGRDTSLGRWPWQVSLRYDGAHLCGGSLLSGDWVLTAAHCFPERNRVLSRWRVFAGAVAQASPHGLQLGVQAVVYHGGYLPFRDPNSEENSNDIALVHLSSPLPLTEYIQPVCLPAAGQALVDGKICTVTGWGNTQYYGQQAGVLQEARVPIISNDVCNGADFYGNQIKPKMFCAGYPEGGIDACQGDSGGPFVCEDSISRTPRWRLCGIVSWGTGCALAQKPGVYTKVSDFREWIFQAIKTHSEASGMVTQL
T2 sequence (P05981 1-162 partner limits assumed): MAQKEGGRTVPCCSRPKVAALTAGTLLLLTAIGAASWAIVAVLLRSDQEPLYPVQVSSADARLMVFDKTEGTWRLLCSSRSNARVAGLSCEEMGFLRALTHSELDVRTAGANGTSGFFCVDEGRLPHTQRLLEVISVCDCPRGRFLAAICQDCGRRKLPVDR

HGFA = target: T3, HGFA (Homo sapiens, UniProt Q04756); test: HyCoSuL P4-P2 substrate specificity screening, HGFA; conditions: for P2 Position Substrate Activity for HGFA (percent substrate cleavage/proteolysis): residue fixed at P2 position; for P3 Position Substrate Activity for HGFA (percent substrate cleavage/proteolysis): residue fixed at P3 position; for P4 Position Various Amino Acids Substrate Activity, HGFA (percent substrate proteolysis/cleavage): residue fixed at P4 position of substrate library; for P3 Position Various Amino Acids Substrate Activity, HGFA (percent substrate cleavage/proteolysis): residue fixed at P3 position of substrate library
T3 sequence (Q04756 373-655): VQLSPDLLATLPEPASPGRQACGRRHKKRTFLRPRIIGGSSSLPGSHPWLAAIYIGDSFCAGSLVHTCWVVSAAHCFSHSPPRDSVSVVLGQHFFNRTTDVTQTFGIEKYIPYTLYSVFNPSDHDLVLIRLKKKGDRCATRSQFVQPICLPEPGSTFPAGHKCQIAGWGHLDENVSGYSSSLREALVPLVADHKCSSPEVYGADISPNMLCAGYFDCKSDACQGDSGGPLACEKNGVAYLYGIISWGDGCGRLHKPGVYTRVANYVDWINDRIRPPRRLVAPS

[1] = best recognized amino acid set to 100%
[2] = P1-Arg HyCoSuL, 100 μM, best recognized amino acid set to 100%
[3] = residue fixed at P4 position, P1-Arg HyCoSuL, 100 μM, best recognized amino acid set to 100%
[4] = residue fixed at P4 position of substrate library

Substance | P2 Position Substrate Activity for TMPRSS2 (percent substrate cleavage/proteolysis) (TMPRSS2; [1]) [%] | P3 Position Substrate Activity for TMPRSS2 (percent substrate cleavage/proteolysis) (TMPRSS2; [1]) [%] | P4 Position Substrate Activity for TMPRSS2 (percent substrate cleavage/proteolysis) (TMPRSS2; residue fixed at P4 position of substrate library, best recognized amino acid set to 100%) [%] | P2 Position Substrate Activity for matriptase (percent substrate cleavage/proteolysis) (matriptase; [2]) [%] | P3 Position Various Amino Acids Substrate Activity, matriptase (percent substrate cleavage/proteolysis) (matriptase) [%] | P3 Position Substrate Activity for matriptase (percent substrate cleavage/proteolysis) (matriptase; [2]) | P4 Position Various Amino Acids Substrate Activity, matriptase (percent substrate proteolysis/cleavage) (matriptase) [%] | P4 Position Substrate Activity for matriptase (percent substrate cleavage/proteolysis) (matriptase; [3]) [%] | P2 Position Substrate Activity for hepsin (percent substrate cleavage/proteolysis) (hepsin; [2]) [%] | P3 Position Substrate Activity for hepsin (percent substrate cleavage/proteolysis) (hepsin; [2]) [%] | P4 Position Substrate Activity for hepsin (percent substrate cleavage/proteolysis) (hepsin; [3]) [%] | P2 Position Substrate Activity for HGFA (percent substrate cleavage/proteolysis) (HGFA; [2]) [%] | P3 Position Substrate Activity for HGFA (percent substrate cleavage/proteolysis) (HGFA; [2]) [%] | P4 Position Substrate Activity for HGFA (percent substrate cleavage/proteolysis) (HGFA; [3]) [%] | P4 Position Various Amino Acids Substrate Activity, TMPRSS2 (percent substrate proteolysis/cleavage) (TMPRSS2; [4]) [%] | P4 Position Various Amino Acids Substrate Activity, hepsin (percent substrate proteolysis/cleavage) (hepsin) [%] | P4 Position Various Amino Acids Substrate Activity, HGFA (percent substrate proteolysis/cleavage) (HGFA) [%] | P3 Position Various Amino Acids Substrate Activity, TMPRSS2 (percent substrate cleavage/proteolysis) (TMPRSS2) [%] | P3 Position Various Amino Acids Substrate Activity, hepsin (percent substrate cleavage/proteolysis) (hepsin) [%] | P3 Position Various Amino Acids Substrate Activity, HGFA (percent substrate cleavage/proteolysis) (HGFA) [%]
L-Arg | 5.65 | 27.44 | 27.99 | 0 | 70 | 62.39% and 70.35% | 100 | 100.00 | 57.23 | 70.75 | 80.32 | 2.08 | 43.98 | 23.62 | – | – | – | – | – | –
L-Dab | 0.00 | 36.73 | – | 0 | 66 | 66.02% | 32 | – | 13.49 | 48.55 | – | 0.50 | 29.40 | – | 12.90 | 47.53 | 16.76 | – | – | –
L-Gln | 6.03 | – | – | 1 | 18 | – | 0 | – | 0.00 | – | – | 0.89 | – | – | 26.44 | 0.76 | 1.96 | 52.35 | 16.72 | 3.47
D-Thr | 0.00 | – | – | 0 | 2 | – | 9 | – | 0.00 | – | – | 0.00 | – | – | 22.57 | 25.74 | 8.61 | 0.00 | 36.69 | 6.45
